Laboratory results: PubChem BioAssay (NCI)
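Grown in 96-well plates, cells were treated for 48 hours with each compound at five concentrations. Insufficient inhibition: endpoint recorded as highest concentration tested. TGI: concentration producing complete growth inhibition.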 Where a SMILES comes first, the peptide text is derived from it. The star is where a group is joined. Cbz = O=C(OCc1ccccc1)*

Test system: SR leukemia
Experiment: NCI anticancer screen, dose series, 48 h

Q: For O=c1cc(NNc2cccc(Cl)c2)[nH]c(=O)[nH]1, which TGI is on record?
A: Its TGI is over 100 µM.

Q: How did the TGI turn out when CCOC(=O)c1sc2nc(SC)nc(Nc3ccc4c(c3)OCCO4)c2c1N was run?
A: The TGI was over 100 µM.

Q: Which TGI does the source give for CC1(C)OP(=O)(O)C=C1Sc1ccc([N+](=O)[O-])cc1[N+](=O)[O-] here?
A: Its TGI is over 100 µM.

Test system: SW-620 colon
Experiment: NCI anticancer screen, dose series, 48 h

Q: How did the TGI turn out when COC(=O)C1=C(OC)[C@H]2C#C/C=C\C#C[C@@H]3Nc4c(cc(O)c5c4C(=O)c4ccccc4C5=O)[C@]24O[C@@]34[C@H]1C was run?
A: Its TGI is 0.0486 µM.

Q: With CCOC(=O)CCC(NC(=O)OCc1ccccc1)C(=O)NC(CCC(=O)OCC)C(=O)OCC (centres undefined) (Cbz-Glu(OEt)-Glu(OEt)-OEt; configuration not given here) as the compound, how does the TGI read?
A: The TGI was over 100 µM.

Q: With CCOC(=O)C(NC(=O)c1ccccc1)(N1CCN(c2cc3c(cc2F)c(=O)c(C(=O)O)cn3C2CC2)CC1)C(F)(F)F (centres undefined) as the compound, how does the TGI read?
A: Its TGI is 51.1 µM.

Q: For COc1ccc(C2(CC(C)C)CCN(S(=O)(=O)c3ccc(C)cc3)C2)cc1OC (centres undefined), which TGI is on record?
A: Its TGI is over 100 µM.

Q: O=c1cc(NNc2cccc(Cl)c2)[nH]c(=O)[nH]1 was tested. Which TGI did it give?
A: Its TGI is 33 µM.

Q: How did the TGI turn out when CCOC(=O)c1sc2nc(SC)nc(Nc3ccc4c(c3)OCCO4)c2c1N was run?
A: Its TGI is over 100 µM.

Q: Which TGI does the source give for CC1(C)OP(=O)(O)C=C1Sc1ccc([N+](=O)[O-])cc1[N+](=O)[O-] here?
A: Its TGI is over 100 µM.

Test system: T-47D breast
Experiment: NCI anticancer screen, dose series, 48 h

Q: With c1ccc2c(c1)Nc1cccc3c1c-2nc1ccccc13 as the compound, how does the TGI read?
A: Its TGI is 5.09 µM.

Q: For CCOC(=O)CCC(NC(=O)OCc1ccccc1)C(=O)NC(CCC(=O)OCC)C(=O)OCC (centres undefined) (Cbz-Glu(OEt)-Glu(OEt)-OEt; configuration not given here), which TGI is on record?
A: Its TGI is over 100 µM.

Q: With CCOC(=O)C(NC(=O)c1ccccc1)(N1CCN(c2cc3c(cc2F)c(=O)c(C(=O)O)cn3C2CC2)CC1)C(F)(F)F (centres undefined) as the compound, how does the TGI read?
A: The TGI was 46.1 µM.

Q: Which TGI does the source give for COc1ccc(C2(CC(C)C)CCN(S(=O)(=O)c3ccc(C)cc3)C2)cc1OC (centres undefined) here?
A: The TGI was over 100 µM.

Q: For O=c1cc(NNc2cccc(Cl)c2)[nH]c(=O)[nH]1, which TGI is on record?
A: The TGI was over 100 µM.

Q: CCOC(=O)c1sc2nc(SC)nc(Nc3ccc4c(c3)OCCO4)c2c1N was tested. Which TGI did it give?
A: The TGI was 26.2 µM.

Q: Which TGI does the source give for CC1(C)OP(=O)(O)C=C1Sc1ccc([N+](=O)[O-])cc1[N+](=O)[O-] here?
A: Its TGI is over 100 µM.

Test system: TK-10 renal
Experiment: NCI anticancer screen, dose series, 48 h

Q: With COC(=O)C1=C(OC)[C@H]2C#C/C=C\C#C[C@@H]3Nc4c(cc(O)c5c4C(=O)c4ccccc4C5=O)[C@]24O[C@@]34[C@H]1C as the compound, how does the TGI read?
A: The TGI was 0.176 µM.

Q: For COc1ccc(C2(CC(C)C)CCN(S(=O)(=O)c3ccc(C)cc3)C2)cc1OC (centres undefined), which TGI is on record?
A: The TGI was over 100 µM.

Q: How did the TGI turn out when O=c1cc(NNc2cccc(Cl)c2)[nH]c(=O)[nH]1 was run?
A: Its TGI is 36.2 µM.

Q: CCOC(=O)c1sc2nc(SC)nc(Nc3ccc4c(c3)OCCO4)c2c1N was tested. Which TGI did it give?
A: Its TGI is 30.3 µM.

Q: With CC1(C)OP(=O)(O)C=C1Sc1ccc([N+](=O)[O-])cc1[N+](=O)[O-] as the compound, how does the TGI read?
A: The TGI was over 100 µM.

Test system: U251 CNS
Experiment: NCI anticancer screen, dose series, 48 h

Q: For COC(=O)C1=C(OC)[C@H]2C#C/C=C\C#C[C@@H]3Nc4c(cc(O)c5c4C(=O)c4ccccc4C5=O)[C@]24O[C@@]34[C@H]1C, which TGI is on record?
A: Its TGI is under 0.0133 µM.

Q: How did the TGI turn out when CCOC(=O)CCC(NC(=O)OCc1ccccc1)C(=O)NC(CCC(=O)OCC)C(=O)OCC (centres undefined) (Cbz-Glu(OEt)-Glu(OEt)-OEt; configuration not given here) was run?
A: Its TGI is over 100 µM.

Q: CCOC(=O)C(NC(=O)c1ccccc1)(N1CCN(c2cc3c(cc2F)c(=O)c(C(=O)O)cn3C2CC2)CC1)C(F)(F)F (centres undefined) was tested. Which TGI did it give?
A: The TGI was over 100 µM.

Q: With COc1ccc(C2(CC(C)C)CCN(S(=O)(=O)c3ccc(C)cc3)C2)cc1OC (centres undefined) as the compound, how does the TGI read?
A: Its TGI is over 100 µM.

Q: How did the TGI turn out when O=c1cc(NNc2cccc(Cl)c2)[nH]c(=O)[nH]1 was run?
A: Its TGI is over 100 µM.

Q: Which TGI does the source give for CCOC(=O)c1sc2nc(SC)nc(Nc3ccc4c(c3)OCCO4)c2c1N here?
A: The TGI was 21.2 µM.

Q: With CC1(C)OP(=O)(O)C=C1Sc1ccc([N+](=O)[O-])cc1[N+](=O)[O-] as the compound, how does the TGI read?
A: The TGI was over 100 µM.

Test system: UACC-257 melanoma
Experiment: NCI anticancer screen, dose series, 48 h

Q: Which TGI does the source give for COC(=O)C1=C(OC)[C@H]2C#C/C=C\C#C[C@@H]3Nc4c(cc(O)c5c4C(=O)c4ccccc4C5=O)[C@]24O[C@@]34[C@H]1C here?
A: Its TGI is 0.0363 µM.

Q: Which TGI does the source give for CCOC(=O)CCC(NC(=O)OCc1ccccc1)C(=O)NC(CCC(=O)OCC)C(=O)OCC (centres undefined) (Cbz-Glu(OEt)-Glu(OEt)-OEt; configuration not given here) here?
A: Its TGI is over 100 µM.

Q: COc1ccc(C2(CC(C)C)CCN(S(=O)(=O)c3ccc(C)cc3)C2)cc1OC (centres undefined) was tested. Which TGI did it give?
A: Its TGI is over 100 µM.

Q: Which TGI does the source give for O=c1cc(NNc2cccc(Cl)c2)[nH]c(=O)[nH]1 here?
A: The TGI was over 100 µM.

Q: CCOC(=O)c1sc2nc(SC)nc(Nc3ccc4c(c3)OCCO4)c2c1N was tested. Which TGI did it give?
A: Its TGI is over 100 µM.

Q: For CC1(C)OP(=O)(O)C=C1Sc1ccc([N+](=O)[O-])cc1[N+](=O)[O-], which TGI is on record?
A: Its TGI is over 100 µM.

Test system: UACC-62 melanoma
Experiment: NCI anticancer screen, dose series, 48 h

Q: With COC(=O)C1=C(OC)[C@H]2C#C/C=C\C#C[C@@H]3Nc4c(cc(O)c5c4C(=O)c4ccccc4C5=O)[C@]24O[C@@]34[C@H]1C as the compound, how does the TGI read?
A: Its TGI is under 0.01 µM.

Q: How did the TGI turn out when CCOC(=O)CCC(NC(=O)OCc1ccccc1)C(=O)NC(CCC(=O)OCC)C(=O)OCC (centres undefined) (Cbz-Glu(OEt)-Glu(OEt)-OEt; configuration not given here) was run?
A: The TGI was over 100 µM.

Q: With CCOC(=O)C(NC(=O)c1ccccc1)(N1CCN(c2cc3c(cc2F)c(=O)c(C(=O)O)cn3C2CC2)CC1)C(F)(F)F (centres undefined) as the compound, how does the TGI read?
A: The TGI was 47.6 µM.

Q: COc1ccc(C2(CC(C)C)CCN(S(=O)(=O)c3ccc(C)cc3)C2)cc1OC (centres undefined) was tested. Which TGI did it give?
A: Its TGI is over 100 µM.

Q: With O=c1cc(NNc2cccc(Cl)c2)[nH]c(=O)[nH]1 as the compound, how does the TGI read?
A: The TGI was over 100 µM.

Q: Which TGI does the source give for CCOC(=O)c1sc2nc(SC)nc(Nc3ccc4c(c3)OCCO4)c2c1N here?
A: Its TGI is 23.5 µM.

Q: CC1(C)OP(=O)(O)C=C1Sc1ccc([N+](=O)[O-])cc1[N+](=O)[O-] was tested. Which TGI did it give?
A: The TGI was over 100 µM.

Test system: UO-31 renal
Experiment: NCI anticancer screen, dose series, 48 h

Q: Which TGI does the source give for c1ccc2c(c1)Nc1cccc3c1c-2nc1ccccc13 here?
A: Its TGI is 2.83 µM.

Q: COC(=O)C1=C(OC)[C@H]2C#C/C=C\C#C[C@@H]3Nc4c(cc(O)c5c4C(=O)c4ccccc4C5=O)[C@]24O[C@@]34[C@H]1C was tested. Which TGI did it give?
A: Its TGI is under 0.01 µM.

Q: With CCOC(=O)CCC(NC(=O)OCc1ccccc1)C(=O)NC(CCC(=O)OCC)C(=O)OCC (centres undefined) (Cbz-Glu(OEt)-Glu(OEt)-OEt; configuration not given here) as the compound, how does the TGI read?
A: Its TGI is over 100 µM.

Q: CCOC(=O)C(NC(=O)c1ccccc1)(N1CCN(c2cc3c(cc2F)c(=O)c(C(=O)O)cn3C2CC2)CC1)C(F)(F)F (centres undefined) was tested. Which TGI did it give?
A: Its TGI is 63.3 µM.

Q: With COc1ccc(C2(CC(C)C)CCN(S(=O)(=O)c3ccc(C)cc3)C2)cc1OC (centres undefined) as the compound, how does the TGI read?
A: Its TGI is over 100 µM.

Q: Which TGI does the source give for O=c1cc(NNc2cccc(Cl)c2)[nH]c(=O)[nH]1 here?
A: Its TGI is over 100 µM.

Q: How did the TGI turn out when CCOC(=O)c1sc2nc(SC)nc(Nc3ccc4c(c3)OCCO4)c2c1N was run?
A: The TGI was 36.7 µM.
